≈ marks a conversion by molar mass, not a printed value. Where “and” joins values, the source holds several entries; their conditions need not be identical. Equal values may be shown once.
Columns and labels:
Test in all cases: ≥ marks a high value that may be exact or a test limit, other limits are often not marked, values filed in µg/mL are converted to µM
Escherichia coli O157:H7 = test system: Escherichia coli O157:H7
Escherichia coli MC1061 = test system: Escherichia coli MC1061
Escherichia coli JW0013 = test system: Escherichia coli JW0013
Escherichia coli JJ2487 = test system: Escherichia coli JJ2487
[1] = test system: Salmonella enterica subsp. enterica serovar Enteritidis MH91989
[2] = test system: Salmonella typhimurium SL1344
Escherichia coli UB1005 = test system: Escherichia coli UB1005
[3] = test system: Pseudomonas aeruginosa PAO1
[4] = test system: Staphylococcus aureus ATCC 25923
Escherichia coli J2210 = test system: Escherichia coli J2210
Candida albicans 08A802 = test system: Candida albicans 08A802
[5] = test system: Candida albicans ATCC 10231
[6] = test system: Staphylococcus epidermidis
[7] = test system: Staphylococcus aureus ATCC 6538
[8] = test system: Escherichia coli ATCC 35218
[9] = test system: Acinetobacter baumannii ATCC 19606
[10] = test system: Mycobacterium tuberculosis FYX
[11] = test system: Mycobacterium tuberculosis H37Rv
[12] = test system: Mycobacterium tuberculosis WXY
Enterococcus faecalis = test system: Enterococcus faecalis
[13] = test system: Staphylococcus aureus 08A875
[14] = test system: Candida albicans 08022710
[15] = test system: Pseudomonas aeruginosa ATCC 27853
[16] = test system: Acinetobacter baumannii 1
Pseudomonas aeruginosa = test system: Pseudomonas aeruginosa
[17] = test system: Candida albicans ATCC 2002
[18] = test system: Bacillus subtilis ATCC 6633
[19] = test system: Mycobacterium tuberculosis CAS3
Escherichia coli = test system: Escherichia coli
[20] = test system: Escherichia coli ATCC 25922
[21] = test system: Salmonella enterica subsp. enterica serovar Choleraesuis CVCC 503
[22] = test system: Staphylococcus aureus ATCC 43300
[23] = test system: Lacticaseibacillus rhamnosus 8014
[24] = test system: Lacticaseibacillus rhamnosus 1.0936
[25] = test system: Lacticaseibacillus rhamnosus 1.9021
[26] = test system: Salmonella enterica subsp. enterica serovar Typhimurium ATCC 14028
[27] = test system: Staphylococcus epidermidis ATCC 12228
Escherichia coli K88 = test system: Escherichia coli K88
[28] = test system: Salmonella enterica subsp. enterica serovar Pullorum C79-13
[29] = test system: Staphylococcus aureus ATCC 29213
[30] = test system: Escherichia coli O157:H7 CICC 21530
[31] = test system: Lacticaseibacillus rhamnosus 1.0911
[32] = test system: Streptococcus agalactiae BNCC 185941
[33] = test system: Staphylococcus aureus ATCC 49525
[34] = test system: Porphyromonas gingivalis W50

CC[C@H](C)[C@H](NC(=O)[C@H](CCCN=C(N)N)NC(=O)[C@H](CCCN=C(N)N)NC(=O)[C@@H]1CCCN1C(=O)[C@@H]1CCCN1C(=O)[C@H](CCCN=C(N)N)NC(=O)[C@@H]1CCCN1C(=O)[C@H](CCCN=C(N)N)NC(=O)[C@@H]1CCCN1C(=O)[C@H](CC(C)C)NC(=O)[C@H](Cc1ccc(O)cc1)NC(=O)[C@@H]1CCCN1C(=O)[C@H](CCCCN)NC(=O)[C@H](CCCCN)NC(=O)[C@H](CC(=O)O)NC(=O)[C@@H](N)C(C)C)C(=O)N[C@@H](Cc1ccc(O)cc1)C(=O)N[C@@H](CC(N)=O)C(=O)N[C@@H](CCCN=C(N)N)C(N)=O [VDKKPYLPRPRPPRRIYNR]
MIC (Escherichia coli O157:H7): 0.991 µM (≈ 2.4 µg/mL)
MIC (Escherichia coli MC1061): 0.124 µM (≈ 0.3 µg/mL)
MIC (Escherichia coli JW0013): 0.248 µM (≈ 0.6 µg/mL)
MIC (Escherichia coli JJ2487): 0.248 µM (≈ 0.6 µg/mL)
MIC [1]: 0.248 µM (≈ 0.6 µg/mL)
MIC [2]: 0.248 µM (≈ 0.6 µg/mL)
MIC (Escherichia coli UB1005): 1.03 µM (≈ 2.5 µg/mL)
MIC [3]: 13.2 µM (≈ 32 µg/mL)
MIC [4]: 9.34 µM (≈ 22.6 µg/mL)
MIC (Escherichia coli J2210): 0.161 µM (≈ 0.39 µg/mL)

CC(C)C[C@H](NC(=O)[C@H](CC(C)C)NC(=O)[C@H](CCCCN)NC(=O)[C@H](CCCCN)NC(=O)[C@@H](NC(=O)[C@H](C)N)C(C)C)C(=O)N[C@@H](CCCN=C(N)N)C(=O)N[C@@H](Cc1c[nH]c2ccccc12)C(=O)N[C@@H](Cc1c[nH]c2ccccc12)C(=O)N[C@@H](CO)C(=O)N[C@@H](CCCN=C(N)N)C(=O)N[C@@H](Cc1c[nH]c2ccccc12)C(=O)N[C@@H](Cc1c[nH]c2ccccc12)C(=O)N[C@@H](CCCCN)C(=O)N[C@@H](CCCCN)C(=O)O [AVKKLLRWWSRWWKK]
MIC (Candida albicans 08A802): ≥ 72.4 µM
MIC [5]: > 96.5 µM
MIC [6]: ≥ 96.5 µM
MIC [7]: > 96.5 µM
MIC [8]: ≥ 96.5 µM
MIC [9]: 72.4 µM (≈ 150 µg/mL)
MIC [10]: 9.05 µM (≈ 18.8 µg/mL)
MIC [11]: 9.05 µM (≈ 18.8 µg/mL)
MIC [12]: 4.53 µM (≈ 9.38 µg/mL)
MIC (Enterococcus faecalis): ≥ 72.4 µM
MIC [13]: ≥ 72.4 µM
MIC [14]: ≥ 96.5 µM
MIC [15]: > 96.5 µM
MIC [16]: ≥ 96.5 µM
MIC (Pseudomonas aeruginosa): > 96.5 µM
MIC [17]: ≥ 96.5 µM
MIC [18]: ≥ 72.4 µM
MIC [4]: > 96.5 µM
MIC [19]: 9.05 µM (≈ 18.8 µg/mL)
MIC (Escherichia coli): > 96.5 µM and 72.4 µM
MIC [20]: > 96.5 µM

CC(C)C[C@H](NC(=O)CNC(=O)[C@H](CCCCN)NC(=O)[C@H](Cc1c[nH]c2ccccc12)NC(=O)[C@H](CCCCN)NC(=O)CNC(=O)[C@H](CC(C)C)NC(=O)[C@H](CC(C)C)NC(=O)[C@@H](N)CCCCN)C(=O)N[C@@H](CC(C)C)C(=O)N[C@@H](CCCCN)C(N)=O [KLLGKWKGLLK]
MIC [21]: ≥ 128 µM
MIC [22]: > 128 µM
MIC [23]: ≥ 128 µM
MIC [24]: ≥ 128 µM
MIC [25]: ≥ 128 µM
MIC [26]: 128 µM (≈ 164 µg/mL)
MIC [27]: > 128 µM
MIC (Escherichia coli K88): 4 µM (≈ 5.13 µg/mL)
MIC [28]: 8 µM (≈ 10.3 µg/mL)
MIC [15]: 32 µM (≈ 41 µg/mL)
MIC [29]: > 128 µM
MIC [30]: ≥ 128 µM
MIC [31]: ≥ 128 µM
MIC [3]: 16 µM (≈ 20.5 µg/mL)
MIC [32]: ≥ 128 µM

CC[C@H](C)[C@H](NC(=O)[C@H](CCCCN)NC(=O)CN)C(=O)N[C@H](C(=O)N[C@@H](CCCCN)C(=O)N[C@@H](CC(C)C)C(=O)N[C@@H](CCCCN)C(=O)N[C@@H](C)C(=O)N[C@@H](CO)C(=O)N[C@@H](CC(C)C)C(=O)N[C@@H](CCCCN)C(=O)N[C@@H](CC(C)C)C(=O)N[C@@H](CC(C)C)C(N)=O)[C@@H](C)CC [GKIIKLKASLKLL]
MIC [33]: ≥ 58.5 µM
MIC [3]: 5.61 µM and 7.3 µM
MIC [34]: ≥ 70.2 µM
